# Literature values in patent US20030198597A1, “Novel macrocyclic activatible magnetic resonance imaging contrast agents” (priority 2002, published 2003).
# Conditions: thermodynamic stability of the Gd3+ chelate complex; background statement
row,Structure (SMILES),"stability constant (K) / formation constant, logK"
1,O=C([O-])CN(CCN(CC(=O)[O-])CC(=O)[O-])CCN(CC(=O)[O-])CC(=O)[O-].[Gd+3] [Gd(DTPA)^2−],22.4
2,O=C([O-])CN1CCN(CC(=O)[O-])CCN(CC(=O)[O-])CCN(CC(=O)[O-])CC1.[Gd+3] [Gd-DOTA],28.5
